This test has as its target GST-hRIPK1 (8-327) (Homo sapiens (Human), UniProt Q13546). Nature of the test: Fluorescent Polarization Binding (FP Binding) assay. Particulars: 10 nM GST-hRIPK1 (8-327), 5 nM fluorescent labeled ligand; read-out: FP IC50. As to the method:
Fluorescent Polarization Binding (FP Binding) assay (Berger S. B. et al. […] Maki J. L. et al. […] Test Compounds were serially diluted in DMSO at 100 fold final concentrations in the assay (1% DMSO final). […] For negative control the enzyme addition was replaced by assay buffer only. After addition of 5 μL of fluorescent labeled ligand at twice the final concentrations in assay buffer, the plate was incubated at RT for 30 min.

Among the data in patent US9815850B2, “Compounds, compositions and methods” (Denali Therapeutics Inc., priority 2016, dated 2017) are IC50 values, retold here.

Chain of GST-hRIPK1 (8-327) (Q13546 8-327): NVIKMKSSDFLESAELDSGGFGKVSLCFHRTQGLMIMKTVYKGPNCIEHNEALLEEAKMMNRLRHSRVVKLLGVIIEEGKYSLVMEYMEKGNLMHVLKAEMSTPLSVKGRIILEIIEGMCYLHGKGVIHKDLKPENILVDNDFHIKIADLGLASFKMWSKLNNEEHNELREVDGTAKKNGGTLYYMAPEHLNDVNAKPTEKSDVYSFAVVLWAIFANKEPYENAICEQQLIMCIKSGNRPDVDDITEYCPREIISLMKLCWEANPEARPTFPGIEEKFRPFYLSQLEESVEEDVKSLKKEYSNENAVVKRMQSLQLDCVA

As a reminder, the IC50 is the concentration that gives 50% inhibition. As to `CN1C(=O)[C@H](NC(=O)c2nnc(Cc3ccccc3)[nH]2)C[C@H](F)c2ccccc21` (mixture of isomers) [Example 11B], the concentration for half-maximal inhibition (IC50) lay within 1000 to 10000 nM.

With `CN1C(=O)[C@@H](NC(=O)c2cc(Cc3ccccc3)on2)CCc2sc(Cl)cc21` (stereo in doubt) [Example 1A, 5-Benzyl-N-(2-chloro-4-methyl-5-oxo-4H,5H,6H,7H,8H-thieno[3,2-b]azepin-6-yl)-1,2-oxazole-3-carboxamide], the IC50 is 0.1 to 1000 nM.

For `CN1C(=O)[C@H](NC(=O)c2cc(Cc3ccccc3)on2)CCc2sc(Cl)cc21` (stereo in doubt) [Example 1B, 5-Benzyl-N-(2-chloro-4-methyl-5-oxo-4H,5H,6H,7H,8H-thieno[3,2-b]azepin-6-yl)-1,2-oxazole-3-carboxamide], the IC50 was 0.1 to 1000 nM.

Turning to `CN1C(=O)C(NC(=O)c2cc(Cc3ccccc3)on2)[C@@H]2C[C@@H]2c2ccccc21` (stereo in doubt) [Example 7B, 5-benzyl-N-((2S)-4-methyl-3-oxo-1,1a,2,3,4,8b-hexahydrobenzo[b]cyclopropa[d]azepin-2-yl)isoxazole-3-carboxamide], the IC50 was greater than 10000 nM.

For `CN1C(=O)C(NC(=O)c2cc(Cc3ccccc3)on2)CC(F)c2ccccc21` (stereo not drawn) [Example 2B, 5-benzyl-N-(5-fluoro-1-methyl-2-oxo-2,3,4,5-tetrahydro-1H-benzo[b]azepin-3-yl)isoxazole-3-carboxamide], the concentration for half-maximal inhibition (IC50) lay within 0.1 to 1000 nM.

On to `CN1C(=O)[C@@H](NC(=O)c2cc(Cc3ccccc3)on2)[C@H]2C[C@H]2c2ccccc21` [Example 7A, 5-benzyl-N-((2S)-4-methyl-3-oxo-1,1a,2,3,4,8b-hexahydrobenzo[b]cyclopropa[d]azepin-2-yl)isoxazole-3-carboxamide], for which the IC50 is 0.1 to 1000 nM.

For the molecule `CN1C(=O)[C@@H](NC(=O)c2nnc(Cc3ccccc3)[nH]2)C[C@@H](F)c2ccccc21` [Example 11A], the IC50 was 0.1 to 1000 nM.

Take `CN1C(=O)[C@@H](NC(=O)c2nnc(Cc3ccccc3)[nH]2)C[C@H](F)c2ccccc21` [Example 12A]: the IC50 was 0.1 to 1000 nM.

On to `CN1C(=O)[C@H](NC(=O)c2nnc(Cc3ccccc3)[nH]2)C[C@@H](F)c2ccccc21` [Example 12B], for which the half-inhibitory concentration (IC50) is 0.1 to 1000 nM.

Regarding `CN1C(=O)[C@@H](NC(=O)c2cc(Cc3ccccc3)[nH]n2)CC2(CC2)c2ccccc21` [Example 59, 5-benzyl-N-[(3S)-1-methyl-2-oxo-1,2,3,4-tetrahydrospiro[l-benzazepine-5,1-cyclopropane]-3-yl]-1H-pyrazole-3-carboxamide], the IC50 was 0.1 to 1000 nM.

In the case of `CN1C(=O)[C@@H](NC(=O)c2cc(Cc3ccccc3)[nH]n2)[C@H]2C[C@H]2c2ccccc21` [Example 60A, 5-benzyl-N-((1aS,2S,8bR)-4-methyl-3-oxo-1,1a,2,3,4,8b-hexahydrobenzo[b]cyclopropa[d]azepin-2-yl)-1H-pyrazole-3-carboxamide], the IC50 was in the range of 0.1 to 1000 nM.

As for `CN1C(=O)[C@H](NC(=O)c2cc(Cc3ccccc3)[nH]n2)[C@@H]2C[C@@H]2c2ccccc21` [Example 60B, 5-benzyl-N-((1aR,2R,8bS)-4-methyl-3-oxo-1,1a,2,3,4,8b-hexahydrobenzo[b]cyclopropa[d]azepin-2-yl)-1H-pyrazole-3-carboxamide], the IC50 was greater than 3000 nM.

On to `CN1C(=O)[C@@H](NC(=O)c2coc(C3(c4ccccc4)CC3)n2)COc2ccccc21` [Example 61, (S)—N-(5-methyl-4-oxo-2,3,4,5-tetrahydrobenzo[b][1,4]oxazepin-3-yl)-2-(1-phenylcyclopropyl)oxazole-4-carboxamide], for which the IC50 lay in the range of 0.1 to 1000 nM.

Turning to `O=C(N[C@H]1COc2cccnc2NC1=O)c1cc(C2(c3ccccc3)CC2)on1` [Example 62, (S)—N-(4-oxo-2,3,4,5-tetrahydropyrido[3,2-b][1,4]oxazepin-3-yl)-5-(1-phenylcyclopropyl)isoxazole-3-carboxamide], the IC50 lay within 0.1 to 1000 nM.

Turning to `CN1C(=O)[C@@H](NC(=O)c2ncc(C3(c4ccccc4)CC3)s2)COc2cccnc21` [Example 63, (S)—N-(5-methyl-4-oxo-2,3,4,5-tetrahydropyrido[3,2-b][1,4]oxazepin-3-yl)-5-(1-phenylcyclopropyl)thiazole-2-carboxamide], the IC50 lay within 0.1 to 1000 nM.

Regarding `CN1C(=O)[C@@H](NC(=O)c2nn(Cc3ccccc3)cc2F)COc2ccccc21` [Example 64, (S)-1-benzyl-4-fluoro-N-(5-methyl-4-oxo-2,3,4,5-tetrahydrobenzo[b][1,4]oxazepin-3-yl)-1H-pyrazole-3-carboxamide], the IC50 fell in the range of 0.1 to 1000 nM.

With `CN1C(=O)[C@@H](NC(=O)c2nnc(Cc3ccccc3)[nH]2)[C@@H]2C[C@@H]2c2ccccc21` [Example 67A, 5-benzyl-N-((1aR,2S,8bS)-4-methyl-3-oxo-1,1a,2,3,4,8b-hexahydrobenzo[b]cyclopropa[d]azepin-2-yl)-4H-1,2,4-triazole-3-carboxamide], the half-inhibitory concentration (IC50) was in the range of 0.1 to 1000 nM.

In the case of `CN1C(=O)[C@H](NC(=O)c2nnc(Cc3ccccc3)[nH]2)[C@H]2C[C@H]2c2ccccc21` [Example 67B, 5-benzyl-N-((1aS,2R,8bR)-4-methyl-3-oxo-1,1a,2,3,4,8b-hexahydrobenzo[b]cyclopropa[d]azepin-2-yl)-4H-1,2,4-triazole-3-carboxamide], the IC50 is greater than 3000 nM.

For `O=C(N[C@H]1COc2ccccc2-n2ccnc21)c1nnc(Cc2ccccc2)[nH]1` [Example 68A, (R)-5-benzyl-N-(4,5-dihydrobenzo[b]imidazo[1,2-d][1,4]oxazepin-4-yl)-4H-1,2,4-triazole-3-carboxamide], the IC50 is 0.1 to 1000 nM.

In the case of `O=C(N[C@@H]1COc2ccccc2-n2ccnc21)c1nnc(Cc2ccccc2)[nH]1` [Example 68B, (S)-5-benzyl-N-(4,5-dihydrobenzo[b]imidazo[1,2-d][1,4]oxazepin-4-yl)-4H-1,2,4-triazole-3-carboxamide], the IC50 is greater than 3000 nM.

Regarding `O=C(N[C@H]1CCc2ccccc2-n2cnnc21)c1nnc(Cc2ccccc2)[nH]1` [Example 69A, (S)-5-benzyl-N-(5,6-dihydro-4H-benzo[f][1,2,4]triazolo[4,3-a]azepin-4-yl)-4H-1,2,4-triazole-3-carboxamide], the IC50 lay within 0.1 to 1000 nM.

Take `O=C(N[C@@H]1CCc2ccccc2-n2cnnc21)c1nnc(Cc2ccccc2)[nH]1` [Example 69B, (R)-5-benzyl-N-(5,6-dihydro-4H-benzo[f][1,2,4]triazolo[4,3-a]azepin-4-yl)-4H-1,2,4-triazole-3-carboxamide]: the 50% inhibitory concentration (IC50) was greater than 3000 nM.

Regarding `O=C(N[C@H]1COc2ccccc2-n2ccnc21)c1cc(Cc2ccccc2)on1` [Example 70A, (R)-5-benzyl-N-(4,5-dihydrobenzo[b]imidazo[1,2-d][1,4]oxazepin-4-yl)isoxazole-3-carboxamide], the IC50 fell in the range of 0.1 to 1000 nM.

On to `O=C(N[C@@H]1COc2ccccc2-n2ccnc21)c1cc(Cc2ccccc2)on1` [Example 70B, (S)-5-benzyl-N-(4,5-dihydrobenzo[b]imidazo[1,2-d][1,4]oxazepin-4-yl)isoxazole-3-carboxamide], for which the IC50 is greater than 3000 nM.

On to `O=C(N[C@H]1CCc2ccccc2-n2cnnc21)c1cc(Cc2ccccc2)on1` [Example 71A, (S)-5-benzyl-N-(5,6-dihydro-4H-benzo[f][1,2,4]triazolo[4,3-a]azepin-4-yl)isoxazole-3-carboxamide], for which the IC50 lay within 0.1 to 1000 nM.

On to `O=C(N[C@@H]1CCc2ccccc2-n2cnnc21)c1cc(Cc2ccccc2)on1` [Example 71B, (R)-5-benzyl-N-(5,6-dihydro-4H-benzo[f][1,2,4]triazolo[4,3-a]azepin-4-yl)isoxazole-3-carboxamide], for which the IC50 was greater than 3000 nM.

Turning to `CN1C(=O)[C@@H](NC(=O)c2cc(C3(c4ccccc4)CC3)[nH]n2)COc2ccccc21` [Example 72, (S)—N-(5-methyl-4-oxo-2,3,4,5-tetrahydrobenzo[b][1,4]oxazepin-3-yl)-5-(1-phenylcyclopropyl)-1H-pyrazole-3-carboxamide], the concentration for half-maximal inhibition (IC50) fell in the range of 0.1 to 1000 nM.

On to `CN1C(=O)[C@@H](NC(=O)c2cc(C3(c4ccccc4)CC3)[nH]n2)COc2cccnc21` [Example 73, (S)—N-(5-methyl-4-oxo-2,3,4,5-tetrahydropyrido[3,2-b][1,4]oxazepin-3-yl)-5-(1-phenylcyclopropyl)-1H-pyrazole-3-carboxamide], for which the IC50 was 0.1 to 1000 nM.

For the molecule `CN1C(=O)[C@@H](NC(=O)c2nn(Cc3ccccn3)cc2F)COc2cccnc21` [Example 74, (S)-4-fluoro-N-(5-methyl-4-oxo-2,3,4,5-tetrahydropyrido[3,2-b][1,4]oxazepin-3-yl)-1-(pyridin-2-ylmethyl)-1H-pyrazole-3-carboxamide], the IC50 was in the range of 0.1 to 1000 nM.

With `CN1C(=O)[C@H](NC(=O)c2nnc(Cc3ccccc3)[nH]2)[C@@H]2C[C@@H]2c2cccnc21` [Example 75B, 5-benzyl-N-((1aR,2R,8bS)-4-methyl-3-oxo-1,1a,2,3,4,8b-hexahydrocyclopropa[d]pyrido[2,3-b]azepin-2-yl)-4H-1,2,4-triazole-3-carboxamide], the IC50 was greater than 3000 nM.

For the molecule `CN1C(=O)[C@@H](NC(=O)c2nn(Cc3ccccc3)cc2F)COc2cccnc21` [Example 76, (S)-1-benzyl-4-fluoro-N-(5-methyl-4-oxo-2,3,4,5-tetrahydropyrido[3,2-b][1,4]oxazepin-3-yl)-1H-pyrazole-3-carboxamide], the IC50 lay in the range of 0.1 to 1000 nM.

Regarding `CN1C(=O)[C@@H](NC(=O)c2ncc(C3(c4ccccc4)CC3)[nH]2)COc2ccccc21` [Example 78, (S)—N-(5-methyl-4-oxo-2,3,4,5-tetrahydrobenzo[b][1,4]oxazepin-3-yl)-5-(1-phenylcyclopropyl)-1H-imidazole-2-carboxamide], the IC50 was 0.1 to 1000 nM.

Turning to `CN1C(=O)[C@@H](NC(=O)c2nc3cccc(-c4ccccc4F)c3s2)COc2ccccc21` [Example 79, (S)-7-(2-fluorophenyl)-N-(5-methyl-4-oxo-2,3,4,5-tetrahydrobenzo[b][1,4]oxazepin-3-yl)benzo[d]thiazole-2-carboxamide], the IC50 fell in the range of 0.1 to 1000 nM.
